Holding throughout (type): cell-based
The subject of data set [1] is enterovirus EV71 (SZ-98 strain). The data set can be described thus: anti-EV71 activity, preventive effect on RD cell (CPE inhibition). The protocol:
(§1) Test principle: Vero cell, MRC-5 cell, and RD cell were used as host of virus, respectively, and samples were tested for their inhibition of cytopathic effect (CPE) caused by virus.
(§2) 1. Virus strain: enterovirus EV71 (SZ-98 strain, provided by Chinese Center for Disease Control and Prevention), Vero cell (provided by the Cell Bank of Chinese Academy of Sciences), MRC-5 cell (provided by the Cell Bank of Chinese Academy of Sciences), and RD cell (provided by the Cell Bank of Chinese Academy of Sciences), were subjected to passage culture, respectively, and stored at −80° C.
(§3) 2. Sample treatment: a test sample (Compounds 1-14 and positive control agent) was dissolved in dimethyl sulfoxide (DMSO) to prepare a stock solution, which was stored at −20° C. The stock solution was diluted with DMEM medium (Gibco Company) containing 2% fetal bovine serum (Gibco Company) to prepare a 100 μM solution before use, and was 3-fold diluted with the medium to obtain 8 diluted concentrates.
(§4) 3. Positive control agent: Con1 (pitstop2) (purchased from AmyJet Scientific Inc., Abcam), a broad-spectrum antiviral inhibitor.
(§5) 4. Test method: • 4.1 Therapeutic effect: the cells were seeded on a 96-well culture plate, and cultured in a 5% CO2, 37° C. incubator for 24 h. About 100 TCID50 enterovirus EV71 was added to each well. After adsorption at 37° C. for 1 h, the virus solution was discarded, and a drug was added at different diluted concentrates, respectively. Meanwhile, virus control and cell control were set, and cultured at 37° C. […] The virus-inhibition rate of a sample at each concentration was calculated based on the chemiluminescent value, the sample concentration was used as abscissa, and the inhibition rate was used as ordinate, and S-Curve fitting was performed by using Origin software. Half maximal inhibitory concentration (IC50) of each sample for enterovirus EV71 was calculated based on the fitting results. Median toxic concentration (TC50) was determined by the same method. […] To each well, a drug was added at a different diluted concentration, then the cells were cultured at 37° C. for 2 h, and then the drug was discarded. About 100 TCID50 enterovirus EV71 was added to each well, adsorbed at 37° C. for 1.5 h, then the virus solution was discarded, and a maintenance medium free of drug was added. Meanwhile, virus control and cell control were set, and cultured at 37° C. […] The virus-inhibition rate of a sample at each concentration was calculated, and half maximal inhibitory concentration (IC50), median toxic concentration (TC50), and selection index (SI) of each sample for enterovirus EV71 were calculated. The methods for determining and calculating them were as described in Item 4.1

Data set [2] can be described thus: median toxic concentration on MRC-5 cell. Conditions: human, MRC-5 cells, Table 1-2 (therapeutic effect), read-out: TC50 (the source's name). The protocol: as §2, §3, §5
The test system of data set [3] is enterovirus EV71 (SZ-98 strain). The data set is described as follows: anti-EV71 activity, preventive effect on Vero cell (CPE inhibition). The protocol:
as §1, §2, §3, §4, §5

Data set [4] has the same test system. The data set can be described thus: anti-EV71 activity, therapeutic effect on Vero cell (CPE inhibition, Celltiter Glo). Conditions: EV71 (SZ-98 strain), therapeutic effect on Vero cell; read-out: IC50. The protocol:
as §1, §2, §3, §4, §5
(In general: ATP-based viability assays read luminescence as a measure of living cells.)

Data set [5] in a line: median toxic concentration on RD cell. Conditions: human, RD cells; for CC50: read-out: TC50 (the source's name); for CC50 at 2 h: Table 2-2 (preventive effect), read-out: TC50. Here is the method:
as §2, §3, §5

Data set [6] has as its system enterovirus EV71 (SZ-98 strain). The data set is described as follows: anti-EV71 activity, therapeutic effect on RD cell (CPE inhibition, Celltiter Glo). The protocol: as §1, §2, §3, §4, §5
The test system is the same in data set [7]. The data set can be described thus: anti-EV71 activity, therapeutic effect on MRC-5 cell (CPE inhibition, Celltiter Glo). Conditions: MRC5. The protocol: as §1, §2, §3, §4, §5
Data set [8] concerns Vero cell. The data set can be described thus: median toxic concentration on Vero cell. Conditions: Table 1-1 (therapeutic effect). Here is the method:
as §2, §3, §5

A short description of data set [9]: median toxic concentration on Vero cell. Conditions: African green monkey, Vero cells; for CC50 at 2 h: Table 2-1 (preventive effect), read-out: TC50; for CC50: Table 1-1 (therapeutic effect), read-out: TC50 (the source's name). Here is the method:
as §2, §3, §5

Data set [10] relates to clathrin-mediated endocytosis of transferrin. The data set can be described thus: inhibition of clathrin-mediated endocytosis of transferrin in HeLa cells (fluorescence microscope). Conditions: for inhibitory effect on endocytosis of transferrin (in words): 1.25 to 40 μmol/L; for inhibition at 20 µM: Homo sapiens, 20 μM compound, read-out: Inhibition rate. Here is the method: 1. Experiment principle: transferrin was a key protein for clathrin-mediated endocytosis. Therefore, by determining the effect of a compound on transferrin in HeLa cell, the inhibitory effect of the compound on clathrin-mediated endocytosis could be evaluated. 2. Sample treatment: a test compound was dissolved in DMSO to prepare a stock solution, which was stored at −20° C. The stock solution was diluted with HEPES buffer (25 mm HEPES, 20 mm Glucose, 1% BSA, sterile water) to prepare a solution with an initial concentration of […] before use, and was 2-fold diluted with the buffer to obtain 6 diluted concentrations from 1.25 to 40 μmol/L. 4. Test method: HeLa cells (provided by the Cell Bank of Chinese Academy of Sciences) were seeded on a 24-well culture plate coated with 0.1 mg/ml polylysine, a serum-free medium DMEM (Gibco Company) was added at 500 μl/well, and the cells were cultured for one night. To each well, 0.5 μl a test compound at a different diluted concentration or 0.1 v/v % DMSO was added, then the pretreatment was performed for 15 min, and then 20 μg/ml alexa^568 transferrin (2 μl) (TF, SIGMA-ALDRICH Company) was added, and the incubation was carried out at 37° C. for 15 min. The resultant mixture was then washed with Live Cell Imaging Solution (LCIS, Invitrogen Company) and an acid at a low pH ([…] NaCl solution containing 0.5% acetic acid) for 30 s, respectively, followed by fixing with cold methanol, and was observed under fluorescence microscope.

Data on 5 compounds can be found in patent publication US10611742B2, “4-oxo-4,5-dihydrothiazole derivative, preparation method and use thereof” (Institute of Pharmacology and Toxicology Academy of …, priority 2015, dated 2020).

pIC50: −log10 of the molar value.

For the compound `O=C1N=C(NS(=O)(=O)c2cccc3ccccc23)S/C1=C\c1ccc(C(=O)O)cc1` [Compound 5, Naphthalene-1-sulfonic acid [5-(4-carboxy-benzylidene)-4-oxo-4,5-dihydro-thiazol-2-yl] amide], the pIC50 (commonly −log10 of the IC50, conventionally taken in molar units) in data set [1] is 3.70; in data set [3], no more than 4.65; in data set [4] it was less than 3.70; in data set [6] (EV71 (SZ-98 strain)), 4.65; in data set [7], less than 3.70. The CC50 in data set [2] and in data set [5] (Table 1-3 (therapeutic effect)) was greater than 200 µM throughout. The CC50 at 2 h in data set [5] is greater than 200 µM; in data set [9] it was 200 µM. The “anti-EV71 activity (in words)” value in [6] is “better anti-EV71 activity”. This compound had a TC50 in data set [8] of 200 µM.
For the compound `O=C1N=C(NS(=O)(=O)c2cccc3ccccc23)S/C1=C\c1ccc(F)cc1Cl` [Compound 10, Naphthalene-1-sulfonic acid [5-(2-chloro-4-fluoro-benzylidene)-4-oxo-4,5-dihydro-thiazol-2-yl] amide], the pIC50 is 5.29 in data set [1]; less than 5.13 in data set [3]; less than 5.13 in [4]; less than 5.13 in data set [6] (EV71 (SZ-98 strain)); less than 5.13 in data set [7]. Further, the “endocytosis of transferrin at 20 μM (in words)” value in [10] is “completely inhibited”. Besides, in data set [10], the “inhibitory effect on endocytosis of transferrin (in words)” value (shortened to “inhibitory effect on endocytosis”) is reported as “dose-dependent”. Further, in data set [10], the inhibition – broadly, the share of the control response that was lost under treatment – at 20 µM came out at 100%. Moreover, the CC50 in data set [2] worked out at 12.8 µM; in data set [5] (Table 1-3 (therapeutic effect)), 15.4 µM; in data set [9], 10.7 µM. For the same compound, the CC50 at 2 h is 15.4 µM in data set [5] and 10.7 µM in data set [9].
For the compound `O=C1N=C(NS(=O)(=O)c2cccc3ccccc23)SC1Nc1ccccc1` (centres unmarked) [Compound 13, Naphthalene-1-sulfonic acid (4-oxo-5-phenylamino-4,5-dihydro-thiazol-2-yl) amide], the pIC50 in data set [1] is 5.13; in data set [3] it was less than 4.65; in data set [4], less than 4.65; in data set [6] (EV71 (SZ-98 strain)), less than 4.65; in data set [7], less than 4.65. Further, the inhibition at 20 µM in [10] amounted to 50%. Also, the CC50 in [2], in [5] (Table 1-3 (therapeutic effect)) and in data set [9] was 66.7 µM in each case. The CC50 at 2 h in [5] and in data set [9] was 66.7 µM throughout.
On to `O=C1N=C(NS(=O)(=O)c2cccc3ccccc23)SC1C(c1ccccc1)c1ccc(Br)cc1` (centres unmarked) [Compound 14, Naphthalene-1-sulfonic acid {5-[(4-bromo-phenyl)-phenyl-methyl]-4-oxo-4,5-dihydro-thiazol-2-yl} amide], for which the pIC50 in data set [1] is 4.65; in data set [3], less than 4.65; in data set [4], 4.81; in data set [6] (EV71 (SZ-98 strain)) it was 4.81; in data set [7] it was 4.81. The “endocytosis of transferrin at 20 μM (in words)” value in [10] was “completely inhibited”. Moreover, the “inhibitory effect on endocytosis” value in [10] is given as “dose-dependent”. Besides, in data set [10], the inhibition at 20 µM stood at 100%. Moreover, the CC50 in data set [2] is 32 µM; in data set [5] (Table 1-3 (therapeutic effect)), 38.5 µM; in [9], 32 µM. Besides, the CC50 at 2 h is 38.5 µM in data set [5] and 32 µM in [9]. Also, the “anti-EV71 activity (in words)” value in data set [6] is “better anti-EV71 activity”.
`O=C1N=C(NS(=O)(=O)c2cccc3ccccc23)S/C1=C\c1ccc(Br)cc1` [Con 1, Naphthalene-1-sulfonic acid [5-(4-bromo-benzylidene)-4-oxo-4,5-dihydro-thiazol-2-yl] amide, reference compound]: the pIC50 in data set [1] was 5.29; in data set [3] it was less than 5.61; in [4], less than 5.61; in [6] (EV71 (SZ-98 strain)), 5.27; in [6] (Enterovirus, EV71), 5.29; in [7], less than 5.61. Further, the “inhibitory effect on endocytosis” value in [10] is reported as “dose-dependent”. The inhibition at 20 µM in data set [10] turned out to be 50%. The CC50 was determined as 10.7 µM in [2], 12.8 µM in data set [5] and 4.28 µM in data set [9]. For the same compound, the CC50 at 2 h in [5] was determined as 12.8 µM; in data set [9], 4.28 µM.
